According to PMC12164071, “Lysine targeting covalent inhibitors of malarial kinase PfCLK3” (RSC Medicinal Chemistry, 2025):
“Also recorded” adds a separate entry of the source. Where two headings read alike, the source gives them in different places.

Assays:
[1] = target: recombinant PfCLK3 (Plasmodium falciparum, UniProt Q8IIL5); test: TR-FRET kinase assay at Km ATP; assay type: biochemical; settings: for IC50: 2 hour incubation, errors SD, N ≥ 3, * concentration response curve not complete; for kinase activity in words: Km ATP
Chain of recombinant PfCLK3 (Q8IIL5 entry or part of it): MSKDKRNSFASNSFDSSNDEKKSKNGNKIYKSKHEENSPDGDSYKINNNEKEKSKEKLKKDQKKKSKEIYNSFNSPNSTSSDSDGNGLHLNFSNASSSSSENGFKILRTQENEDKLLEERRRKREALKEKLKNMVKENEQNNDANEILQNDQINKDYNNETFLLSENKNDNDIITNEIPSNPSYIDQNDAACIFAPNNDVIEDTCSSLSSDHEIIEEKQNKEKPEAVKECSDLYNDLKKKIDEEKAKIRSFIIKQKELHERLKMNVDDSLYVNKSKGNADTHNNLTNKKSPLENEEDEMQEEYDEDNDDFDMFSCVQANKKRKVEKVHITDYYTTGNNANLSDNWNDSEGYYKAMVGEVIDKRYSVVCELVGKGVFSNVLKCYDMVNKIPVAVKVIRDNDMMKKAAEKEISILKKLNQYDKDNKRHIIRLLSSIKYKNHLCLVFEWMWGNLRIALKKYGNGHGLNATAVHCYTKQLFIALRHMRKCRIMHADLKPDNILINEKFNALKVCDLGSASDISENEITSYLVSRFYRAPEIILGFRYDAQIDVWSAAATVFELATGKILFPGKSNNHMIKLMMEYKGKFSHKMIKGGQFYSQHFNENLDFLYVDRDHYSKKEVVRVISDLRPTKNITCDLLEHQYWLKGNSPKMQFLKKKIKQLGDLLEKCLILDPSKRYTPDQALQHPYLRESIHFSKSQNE
Procedure: All compounds were then evaluated against recombinant PfCLK3 using a TR-FRET kinase assay (Fig. 5). […]
Time Resolved Förster Resonance Energy Transfer (TR-FRET) Assay
Tr-FRET technology was used to determine kinase activity and Km ATP before profiling compounds. An 11-point half-log serial dilution of each test compound was prepared in 100% DMSO at 100X final test concentration. The dilution series were dispensed onto assay plates with liquid handling machinery using positive displacement. The final DMSO concentration in the assay was 1%. To obtain IC 50 values, full length recombinant PfCLK3 was prepared in 1X assay buffer (50 mM Hepes, 10 mM MgCl2, 1 mM EGTA, 0.01% Tween20, 2 mM TCEP) at a 2X concentration and incubated with compounds for 15 minutes at room temperature before addition of ULight-labelled peptide substrate (MBP) with Km ATP (at 2X concentration). The reaction was centrifuged and incubated for 2 hr at 37 °C. To stop the reaction, 1X Lance detection buffer was added with 1 nM Eu-labelled anti-MBP and 10 mM EDTA, and the reaction was incubated in the dark for 2 hr at room temperature to allow detection to take place. Plate output was read on a Pherastar FSX and data analysed in Graphpad Prism to a 4-parameter curve fit. […]

[2] = test system: PfCLK3 kinase domain (amino acid residues 334–699); test: Intact protein LC-MS for covalent adduct formation; assay type: binding, Plasmodium falciparum; settings: for covalent adduct formation with PfCLK3 kinase domain: pH 7.4, 1:5 protein to compound ratio; for Relative Ratio, assignment apo / Relative Ratio, assignment holo (singly modified): compound 4 with C-terminal His-tag construct
Procedure: All compounds were then evaluated for covalent binding with PfCLK3 kinase domain (amino acid residues 334–699) using intact protein LC-MS (Fig. 3). Compounds were incubated at pH 7.4 in a 1 : 5 protein to compound ratio and analysed for covalent adduct formation using ESI TOF. […] Compounds 8 and 9 yielded a fully modified species at 43 957 Da, which can be attributed to the mass of the apo protein + the mass of the pyridinium product adduct. A minor mass (20–25%) of 44 378 Da was also detected, consistent with a doubly modified PfCLK3 kinase domain. This implies that cross reactivity with non-catalytic lysine residues is possible using the ethynyl benzaldehyde functionality, although a minor product. […]
dialyzing the protein into a final buffer containing 20 mM HEPES pH 7.4, 150 mM NaCl, 1 […]
PfCLK3 kinase domain (residues 334–699 with a C-terminal TEV cleavage sequence and His6-tag) was cloned into pFastBac vector and expressed and purified from Sf21 insect cells.
Cells were infected using P2 BIICs at an MOI of 0.2 and left to express for 72 h. Harvested cells were lysed and centrifuged before purifying using IMAC and SEC in a final buffer containing 20 mM HEPES pH 7.4, 150 mM NaCl, 1 mM TCEP, and 1 mM MgCl2.
Protein Mass Spectrometry
For intact protein mass spectrometry, compounds were incubated with a 5-fold excess of compound in buffer containing 20 mM HEPES pH 7.4, 150 mM NaCl, 1 mM TCEP, and 1 mM MgCl 2. 5 μL of kinase domain (1 mg/mL) was added to 25 μL of buffer before 0.12 μL of compound in a 10 mM DMSO stock was added to start the incubation. Samples were incubated at room temperature for 4 hours before 10 μL alliquots were analysed by LC-MS.
Intact protein LC-MS experiments were performed on a Synapt G2 Q-ToF instrument equipped with electrospray ionisation (Waters Corp., Manchester, UK). LC separation was achieved using an Acquity UPLC equipped with a reverse phase C4 Aeris Widepore 50 × 2.1 mm HPLC column (Phenomenex, CA, USA) and a gradient of 5–95% acetonitrile (0.1% formic acid) over 10 minutes was employed. Data analysis was performed using MassLynx v4.1 and deconvolution was performed using MaxEnt. […]

[3] = test system: 3D7 Plasmodium falciparum parasites; test: Ex vivo P. falciparum (3D7) inhibition assay; assay type: cell-based
Procedure: Compounds 4, 5, 8 and 9 were then assessed against 3D7 Plasmodium falciparum parasites (Fig. 6). […]
P. falciparum (3D7) culture and synchronisation.
P. falciparum cultures were maintained in RPMI-1640 media (Invitrogen) supplemented with 0.2% sodium bicarbonate, 0.5% Albumax II, 2.0 mM L-glutamine (Sigma) and 10 mg/L gentamycin. For continuous culture, the parasites were maintained at 4% haematocrit in human erythrocytes from 0+ blood donors and between 0.5 - 3% parasitaemia in an incubator at 37 °C, 5% carbon dioxide (CO 2), 5% oxygen (O 2) and 90% nitrogen (N 2). To obtain highly synchronous ring stage parasites for assays, cultures were double synchronised using Percoll and Sorbitol synchronisation. First, highly segmented schizonts were enriched by centrifugation on a 70% Percoll (GE Healthcare) cushion gradient. The Schizont pellet was collected and washed twice before fresh erythrocytes were added to a final haematocrit of 4%, and incubated for about 1-2 hours shaking continuously to allow merozoites egress and re-invasion of new erythrocytes. Residual schizonts were then removed by a second Percoll purification followed by treating the ring pellet with sorbitol to generate highly synchronous 1-2 hours old ring-stage parasites.
Ex vivo P. Falciparum (3D7) inhibition assay.
To determine the IC 50 of the molecules in parasites (P. falciparum 3D7) ex vivo, the molecules were diluted 1 in 3 from a starting concentration of 100 μM for 12 dilution points in triplicate. 50 μL of freshly diluted drugs, at twice the required final concentrations were aliquoted into black 96-well plates. To the compound plates, 50 μL of parasites prepared at 8% haematocrit at a parasitaemia (0.3 - 0.5%) were added and mixed by pipetting up and down several times giving a final culture volume of 100 μL at the required compound concentration (top concentration of 100 μM) and 4% haematocrit. To the ‘no compound’ control, growth media was added and uninfected erythrocytes were included on the plate as blank. The outer wells were filled with media to reduce evaporation from the experimental wells and the plates incubated for 72 hours (±2 hours) to allow the parasites sufficient time to re-invade before they are collected and frozen. For cellular washout studies, compound media was exchanged for compound-free media after 6 hours, and the parasites incubated for a […]

[4] = Human cell viability assay (resazurin); settings: HepG2, 48 hours, errors SD, N ≥ 3
Procedure: Cytotoxicity was assessed in HepG2 cells to complement the selectivity evaluations (Fig. 7). […]
Human cell viability assay.
Mycoplasma tested HepG2 cells were cultured in Dulbecco’s Modified Eagle Medium
(DMEM) with 10% fetal bovine serum, 1% non-essential AA, 1% sodium pyruvate, 1% Pen-
strep and 100ug/mL Normocin. Cultures were incubated at 37 ℃, 5% CO2. Cells were
detached using 0.05% trypsin-EDTA. 500nL of drug compound dilutions, in triplicate, were
added to 384-well, black, clear bottom assay plates using a Mosquito liquid handling
machine. Assay plates, containing compound dilutions, were seeded at 5,000 cells/well and
incubated for 48 hours. 40uM final concentration resazurin, diluted in DPBS, was added to
the assay plates which were then incubated for 4 hours and analysed using a ClariostarTM
plate reader to measure fluorescence Intensity (545-20nm/600-40nm). 3 control compounds
were included on every assay plate, Tamoxifen, Puromycin and TCMDC-135051. Maximum
signal control was obtained from wells with DMSO only and minimum signal control with
Tamoxifen 100uM. These were used to normalise data and give percentage inhibition of
metabolic activity. Experiments were performed N=3 and normalised data was grouped and a
nonlinear regression curve with four parameters was plotted using GraphPad Prism,
generating activity data. […]

[5] = target: human (h)CLK2 (Homo sapiens, UniProt P49760); test: Selectivity kinase assay against hCLK2; assay type: biochemical; settings: for IC50: errors SD, N ≥ 3
Chain of human (h)CLK2 (P49760 whole entry): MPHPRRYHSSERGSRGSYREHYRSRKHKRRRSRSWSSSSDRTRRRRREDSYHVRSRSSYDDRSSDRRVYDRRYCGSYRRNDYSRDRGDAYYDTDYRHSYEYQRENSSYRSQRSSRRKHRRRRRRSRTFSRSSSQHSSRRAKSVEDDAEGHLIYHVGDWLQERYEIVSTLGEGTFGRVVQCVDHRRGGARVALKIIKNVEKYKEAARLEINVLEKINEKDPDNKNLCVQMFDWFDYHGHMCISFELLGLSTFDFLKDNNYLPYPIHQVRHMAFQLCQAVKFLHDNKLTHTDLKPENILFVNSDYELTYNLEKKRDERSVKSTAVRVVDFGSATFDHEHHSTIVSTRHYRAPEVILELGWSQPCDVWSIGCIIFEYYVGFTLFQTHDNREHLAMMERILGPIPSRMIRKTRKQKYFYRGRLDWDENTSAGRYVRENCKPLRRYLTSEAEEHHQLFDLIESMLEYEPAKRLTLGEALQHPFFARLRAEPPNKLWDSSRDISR
Text: Given this work aims to target a conserved residue, selectivity must be derived from the reversible ligand rather than the covalent interaction.

[6] = pH 7.4, 1:5 protein to compound, 4 hours room temperature
[7] = 3D7, Pf3D7 parasites, 72 hours, errors SD, N ≥ 3, read-out: EC50 (3D7)
[8] = 3D7, Pf3D7 parasites, 72 hours, errors SD, N ≥ 3, read-out: pEC50 (3D7) (converted)

| Compound | IC50 ([1]; IC50 (apparent), Km ATP (5 μM)) [nM] | IC50 ([1]; pIC50, Km ATP (5 μM)) [nM] | covalent adduct formation with PfCLK3 kinase domain [2] | Relative Ratio, assignment apo [2, 6] | CC50 at 48 h ([4]; CC50 (HepG2)) [nM] | CC50 at 48 h ([4]; pCC50 (HepG2)) [nM] | also measured |
| --- | --- | --- | --- | --- | --- | --- | --- |
| C=CS(=O)(=O)Nc1ccc(-c2c[nH]c3ncc(-c4cc(CN(CC)CC)ccc4OC)cc23)cc1 [Compound 11] | 892 | 891 | – | – | – | – | kinase activity in words [1]: poorly active, not reaching 100% inhibition at the highest concentration tested |
| CCN(CC)Cc1ccc(OC)c(-c2cnc3[nH]cc(-c4ccc(C=O)c(O)c4)c3c2)c1 [Compound 7] | 83 ± 42 | 83.2 | unable to covalently bind the protein | 100 | – | – | – |
| C#Cc1ccc(-c2ccnc3[nH]c(-c4cc(CN(CC)CC)ccc4OC)cc23)cc1C=O [Compound 8] | 29 ± 3 | 28.8 | showed covalent adduct formation; also recorded: formed a covalent adduct with PfCLK3 | – | 12300 ± 2530 | 12300 | EC50 [3, 7]: 2270 ± 2890 nM; EC50 [3, 8]: 2290 nM; IC50 ([5]; read-out: IC50 (hCLK2)): 69 ± 31 nM; doubly modified PfCLK3 kinase domain, minor mass abundance ([2]; 44 378 Da species): 20–25%; Relative Ratio, assignment holo (doubly modified) [2, 6]: 25; Relative Ratio, assignment holo (singly modified) [2, 6]: 75 |
| CCN(CC)Cc1ccc(OC)c(-c2cnc3[nH]cc(-c4ccc(O)c(C=O)c4)c3c2)c1 [Compound 5] | 19 ± 10 | 19.5 | showed covalent adduct formation; also recorded: formed a covalent adduct with PfCLK3 | 68 | 4740 ± 3180 | 2690 | EC50 [3, 7]: 3260 ± 1670 nM; EC50 [3, 8]: 3240 nM; IC50 ([5]; read-out: pIC50 (hCLK2) (converted)): 11 nM; fold more potent against hCLK2 than parent S1 ([5]; relative to S1): 20 fold; partial covalent bond formation, modification ([2]; imine adduct): 32–60%; Relative Ratio, assignment holo (singly modified) [2, 6]: 32 |
| CCN(CC)Cc1ccc(OC)c(-c2cc3c(-c4ccc(C=O)c(O)c4)ccnc3[nH]2)c1 [Compound 6] | 155 ± 19 | 155 | unable to covalently bind the protein | 100 | – | – | – |
| CCN(CC)Cc1ccc(OC)c(-c2cc3c(-c4ccc(C(=O)O)c(C(C)C)c4)ccnc3[nH]2)c1 [Compound 1, TCMDC-135051, reference compound] | 17 ± 3 | 17.4 | – | – | 2750 ± 580 | 2750 | EC50 ([3]; 3D7, 72 h, read-out: EC50 (3D7)): 266 ± 11 nM; EC50 ([3]; 3D7, 72 h, read-out: pEC50 (3D7) (converted)): 263 nM; IC50 ([5]; IC50 (hCLK2)): 879 ± 325 nM; IC50 ([5]; pIC50 (hCLK2)): 891 nM |
| C=CC(=O)Nc1ccc(-c2c[nH]c3ncc(-c4cc(CN(CC)CC)ccc4OC)cc23)cc1 [Compound 13] | 1950 | 2000 | – | 100 | – | – | kinase activity in words [1]: significantly lower activity than all other analogues |
| CCN(CC)Cc1ccc(OC)c(-c2cc3c(-c4ccc(S(=O)(=O)F)cc4)ccnc3[nH]2)c1 [Compound 2] | 83 ± 10 | 83.2 | – | 100 | – | – | – |
| C=CC(=O)Nc1ccc(-c2ccnc3[nH]c(-c4cc(CN(CC)CC)ccc4OC)cc23)cc1 [Compound 12] | – | – | – | 100 | – | – | – |
| CCN(CC)Cc1ccc(OC)c(-c2cnc3[nH]cc(-c4ccc(S(=O)(=O)F)cc4)c3c2)c1 [Compound 3] | 302 ± 33 | 302 | – | 100 | – | – | – |
